Read-outs that look alike come from different tables or passages of the source.
Experiments:
Type in all cases: cell-based
HIV-1 IIIB = assay: In vitro HIV-1 prevention model, TZM-bl-FcRI cells, β-galactosidase; conditions: TZM-bl-FcRI cells, 0.1, 0.25 and 1 μM peptide, 48 h
Protocol: Sixty-seven (67) compounds from a library of peptides included in TABLE 1 were evaluated for inhibition of HIV-1 IIIB in TZM-bl-FcRI cells. The compounds were tested at three (3) concentrations with six (6) replicates each for efficacy and toxicity for 48 hours in this model. Virus was diluted 1:128, based on a previous titration. The test article was dissolved in DMSO to generate a stock solution, and dosing solutions were prepared by dilution of the stock solution using the appropriate volume of PBS. These dosing solutions were mixed with predetermined volumes of the virus suspension, based on the titration data, and were incubated for 30 min at 37° C./5% CO2.
Following incubation, the virus/compound mixture was added to pre-plated TZM-bl-FcRI cells and the necessary volume of assay media (based on the titration). The culture was incubated for six hours under the above conditions and then washed to remove residual virus and compound. The cultures were incubated for an additional 48 hours at 37° C./5% CO2 before measuring β-galactosidase in the wells using a chemiluminescent endpoint.
The study was carried out using a 96-well format. The first row of 12 wells was used as a negative control (cells with no virus or test compound added). […] Peptide 346-001 served as a positive control on each plate, such that three other test compounds could be evaluated per plate. […]

[1] = system: SARS-CoV-2 (2019-nCoV/USA-WA1/2020 strain); conditions: 60% confluent VERO E6, 48 h
[2] = system: SARS-CoV-2 (2019-nCoV/USA-WA1/2020 strain); conditions: 80% confluent VERO E6, 48 h
[3] = system: SARS-CoV-2 (2019-nCoV/USA-WA1/2020 strain); conditions: VERO E6, 48 h

Substance: Ac-SWLRDIWDWICEVLSDFKC(succinimido-propionylaminoethyl-mPEG2K)-NH2 (Ac-SWLRDIWDWICEVLSDFKC(succinimido‑propionylaminoethyl‑mPEG2K)-NH2) [Peptide 346-064]
- potency against HIV-1 compared with peptide 346-001 (HIV-1 IIIB): increase in potency

Substance: GSWLRDIWDWICEVLSDFK [Peptide 346-003]
- dose response curve shape [1]: unexpected and unusual dose response curve shape

Substance: SIWRDWVDLICEFLSDWK [Peptide 346-007]
- dose-response relationship [2]: steep dose response relationship
- potency relative to the other peptides tested [2]: ca. double

Substance: SWLRDIWDWICEVLSDFK [Peptide 346-001, virucidal amphipathic α-helical peptide derived from the hepatitis C virus (HCV) NS5A membrane anchor domain]
- reduction on viral copy numbers ([3]; 50 μM dosing concentration): > 5 orders of magnitude
- reduction on viral copy numbers ([3]; 125 μM dosing concentration): > 7 orders of magnitude
- potency against SARS-CoV-2 infection [3]: high potency

Reference: patent publication US20240197814A1, “MATERIALS AND METHODS FOR THE PREVENTION AND TREATMENT OF VIRAL DISEASES” (priority 2021, published 2024)
